Measurements reported in patent US6504058B1 (priority 1997, dated 2003).

How the values were obtained:
Phytophthora infestans = format: in vivo, Phytophthora infestans (on tomato seedlings); details: 200 ppm test suspension sprayed to run-off (equivalent to 500 g/ha) on tomato seedlings; 100 = 100% disease control, 0 = no control; # = significant activity
Botrytis cinerea = assay: Test E: gray mold, preventive spray on cucumber seedlings, disease rating; format: in vivo, Botrytis cinerea (on cucumber seedlings); details: 200 ppm test suspension sprayed to run-off (equivalent to 500 g/ha) on cucumber seedlings; 100 = 100% disease control, 0 = no control; # = significant activity
In short: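 Cucumber seedlings sprayed to run-off with 200 ppm suspension (equivalent to 500 g/ha), inoculated next day with B. cinerea spores. Kept 48 h saturated at 20 °C, then 5 days in growth chamber at 20 °C; disease control rated 0–100 relative to controls.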

[1] = system: Erysiphe graminis f. sp. tritici; assay: Test A: wheat powdery mildew, preventive spray on wheat seedlings, disease rating; format: in vivo, Erysiphe graminis f. sp. tritici (on wheat seedlings); details: 200 ppm test suspension sprayed to run-off (equivalent to 500 g/ha) on wheat seedlings; 100 = 100% disease control, 0 = no control; # = significant activity
In short: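 Compounds at 200 ppm (acetone 3%, 250 ppm Trem 014 in water; equivalent to 500 g/ha) sprayed to run-off on wheat seedlings, inoculated with spore dust the following day. Plants held at 20° C. for 7 days, then rated 0–100% disease control relative to untreated controls.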

Pyricularia oryzae = format: in vivo, Pyricularia oryzae (on rice seedlings); details: 200 ppm test suspension sprayed to run-off (equivalent to 500 g/ha) on rice seedlings; 100 = 100% disease control, 0 = no control; # = significant activity
Puccinia recondita = assay: Test B: wheat leaf rust, preventive spray on wheat seedlings, disease rating; format: in vivo, Puccinia recondita (on wheat seedlings); details: 200 ppm test suspension sprayed to run-off (equivalent to 500 g/ha) on wheat seedlings; 100 = 100% disease control, 0 = no control; # = significant activity
In short: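 Wheat seedlings were sprayed to run-off with 200 ppm suspensions (≈500 g/ha; 3% acetone, 250 ppm Trem 014) and inoculated with Puccinia recondita spores the next day. Plants were held 24 h saturated at 20 °C, then 6 days at 20 °C. Disease control was rated 0-100 relative to untreated controls.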

Structure (SMILES) | Test D disease control rating (potato and tomato late blight) (Phytophthora infestans) | Test E disease control rating (gray mold) (Botrytis cinerea) | Test A disease control rating (wheat powdery mildew) [1] | Test C disease control rating (rice blast) (Pyricularia oryzae) | Test B disease control rating (wheat leaf rust) (Puccinia recondita)
CC(COc1cc(Cl)ccc1F)NC(=O)C1(C)CC(C)(Cl)C1 (stereo not drawn) [compound 51] | 0 (a rating of 0 indicates no disease control (relative to the controls)) | 0 (a rating of 0 indicates no disease control (relative to the controls)) | 83# % | 100# (a rating of 100 indicates 100% disease control) | 0 (a rating of 0 indicates no disease control (relative to the controls))
CC(COc1cc(Cl)ccc1F)NC(=O)C1(C)CC(C)(Cl)C1 (stereo not drawn) [compound 52] | 0 (a rating of 0 indicates no disease control (relative to the controls)) | 0 (a rating of 0 indicates no disease control (relative to the controls)) | 83# % | 100# (a rating of 100 indicates 100% disease control) | 0 (a rating of 0 indicates no disease control (relative to the controls))
CC(COc1cc(Cl)ccc1F)NC(=O)C1(C)CC(C)(Br)C1 (stereo not drawn) [compound 53] | 0 (a rating of 0 indicates no disease control (relative to the controls)) | 0 (a rating of 0 indicates no disease control (relative to the controls)) | 100# (a rating of 100 indicates 100% disease control) | 100# (a rating of 100 indicates 100% disease control) | 0 (a rating of 0 indicates no disease control (relative to the controls))
CC(COc1cc(Cl)ccc1F)NC(=O)C1(C)CC(C)(Br)C1 (stereo not drawn) [compound 54] | 0 (a rating of 0 indicates no disease control (relative to the controls)) | 0 (a rating of 0 indicates no disease control (relative to the controls)) | 24% | 97# % | 0 (a rating of 0 indicates no disease control (relative to the controls))
CC(COc1cc(F)ccc1Cl)NC(=O)C1(C)CC(C)(Br)C1 (stereo not drawn) [compound 55] | 0 (a rating of 0 indicates no disease control (relative to the controls)) | 0 (a rating of 0 indicates no disease control (relative to the controls)) | 83# % | 74% | 0 (a rating of 0 indicates no disease control (relative to the controls))
CC(COc1cc(F)ccc1Cl)NC(=O)C1(C)CC(C)(Br)C1 (stereo not drawn) [compound 56] | 0 (a rating of 0 indicates no disease control (relative to the controls)) | 0 (a rating of 0 indicates no disease control (relative to the controls)) | 99# % | 100# (a rating of 100 indicates 100% disease control) | 0 (a rating of 0 indicates no disease control (relative to the controls))
CC(COc1cc(F)ccc1F)NC(=O)C1(C)CC(C)(Br)C1 (stereo not drawn) [compound 57] | 0 (a rating of 0 indicates no disease control (relative to the controls)) | 0 (a rating of 0 indicates no disease control (relative to the controls)) | 90# % | 86# % | 0 (a rating of 0 indicates no disease control (relative to the controls))
CC(COc1cc(F)ccc1F)NC(=O)C1(C)CC(C)(Br)C1 (stereo not drawn) [compound 58] | 0 (a rating of 0 indicates no disease control (relative to the controls)) | 0 (a rating of 0 indicates no disease control (relative to the controls)) | 72% | 97# % | 0 (a rating of 0 indicates no disease control (relative to the controls))
COc1cc(Br)ccc1C(C)NC(=O)C1(C)CC(C)(Cl)C1 (stereo not drawn) [compound 59] | 23% | 0 (a rating of 0 indicates no disease control (relative to the controls)) | 0 (a rating of 0 indicates no disease control (relative to the controls)) | 100# (a rating of 100 indicates 100% disease control) | 85# %
COc1cc(Br)ccc1C(C)NC(=O)C1(C)CC(C)(Cl)C1 (stereo not drawn) [compound 60] | 23% | 0 (a rating of 0 indicates no disease control (relative to the controls)) | 0 (a rating of 0 indicates no disease control (relative to the controls)) | 100# (a rating of 100 indicates 100% disease control) | 0 (a rating of 0 indicates no disease control (relative to the controls))
CC(NC(=O)C1(C)CC(Cl)(CCl)C1)c1ccc(Br)cc1 (stereo not drawn) [compound 61] | 96# % | 0 (a rating of 0 indicates no disease control (relative to the controls)) | 0 (a rating of 0 indicates no disease control (relative to the controls)) | 100# (a rating of 100 indicates 100% disease control) | 0 (a rating of 0 indicates no disease control (relative to the controls))
CC(NC(=O)C1(C)CC(Cl)(CCl)C1)c1ccc(Br)cc1 (stereo not drawn) [compound 62] | 84# % | 0 (a rating of 0 indicates no disease control (relative to the controls)) | 0 (a rating of 0 indicates no disease control (relative to the controls)) | 97# % | 0 (a rating of 0 indicates no disease control (relative to the controls))
